# Measurements as given in patent CN104497008A, “取代噁唑烷酮类化合物及其使用方法和用途” (priority 2014, dated 2015).
# Experiment: Solubility test of the compounds
# Assay type: physicochemical
# Details: water, 37 ℃, 24 h shaking, 40 rpm, HPLC; read-out: compound solubility
row,Compound,solubility at 24 h [µg/mL]
1,"CN1CCc2nc(C(=O)NCC3COC(=O)N3C(=O)Nc3ccc(Cl)cn3)sc2C1 (centres unmarked) [实施例8, N-(5-氯吡啶-2-基)-4-((5-甲基-4,5,6,7-四氢噻唑并[5,4-c]吡啶-2-甲酰氨基)甲基)-2-氧代噁唑烷-3-甲酰胺]",150
2,"NC(=O)N1CCc2cc(N3C[C@H](CNC(=O)c4ccc(Cl)s4)OC3=O)sc2C1 [实施例3, (S)-2-(5-((5-氯噻吩-2-甲酰氨基)甲基)-2-氧代噁唑烷-3-基)-4,5-二氢噻吩并[2,3-c]吡啶-6(7H)-甲酰胺]",260
3,CN1CCc2cc(N3C[C@H](CNC(=O)c4ccc(Cl)s4)OC3=O)sc2C1 [实施例6],220
4,"O=C(NC[C@H]1CN(c2sc3ccccc3c2Cl)C(=O)O1)c1ccc(Cl)s1 [实施例7, (S)-5-氯-N-((3-(3-氯苯并[b]噻吩-2-基)-2-氧代噁唑烷-5-基)甲基)噻吩-2-甲酰胺]",80
5,"CC(=O)N1CCc2sc(N3C[C@H](CNC(=O)c4ccc(Cl)s4)OC3=O)cc2C1 [实施例2, (S)-N-((3-(5-乙酰基-4,5,6,7-四氢噻吩并[3,2-c]吡啶-2-基)-2-氧代噁唑烷-5-基)甲基)-5-氯噻吩-2-甲酰胺]",110
6,"NC(=O)N1CCc2sc(N3C[C@H](CNC(=O)c4ccc(Cl)s4)OC3=O)cc2C1 [实施例1, (S)-2-(5-((5-氯噻吩-2-甲酰氨基)甲基)-2-氧代噁唑烷-3-基)-6,7-二氢噻吩并[3,2-c]吡啶-5(4H)-甲酰胺]",240
7,"CC(=O)N1CCc2cc(N3C[C@H](CNC(=O)c4ccc(Cl)s4)OC3=O)sc2C1 [实施例4, (S)-N-((3-(6-乙酰基-4,5,6,7-四氢噻吩并[2,3-c]吡啶-2-基)-2-氧代噁唑烷-5-基)甲基)-5-氯噻吩-2-甲酰胺]",130
8,"CN1CCc2nc(N3C[C@H](CNC(=O)c4ccc(Cl)s4)OC3=O)sc2C1 [实施例5, (S)-5-氯-N-((3-(5-甲基-4,5,6,7-四氢噻唑[5,4-c]吡啶-2-基)-2-氧代噁唑烷-5-基)甲基)噻吩-2-甲酰胺]",230
